Experimental data as given in PMC10716780, “The multistep oxidation of cholesterol to pregnenolone by human cytochrome P450 11A1 is highly processive” (The Journal of Biological Chemistry, 2023).

Experiments:
bovine P450 11A1 = system: bovine P450 11A1; design: method as in PMID 217878; conditions: equilibrium dialysis, bovine P450 11A1 ref 26; cited from earlier work
human P450 11A1 = target: T1, human P450 11A1 (Homo sapiens, UniProt P05108); test: Single-turnover kinetics of P450 11A1 with [1,2-3H]-cholesterol (radio-HPLC); type: biochemical; design: M A S T R S P R P F N E I P S P G D N; Met-Ala (N-terminal start residues in place of the transit peptide and Ile40) (N); made in house; host or cells: E. coli (P450 11A1 in C41(DE3); Adx and AdR in E. coli)
T1 sequence (P05108 41-521 limits assumed): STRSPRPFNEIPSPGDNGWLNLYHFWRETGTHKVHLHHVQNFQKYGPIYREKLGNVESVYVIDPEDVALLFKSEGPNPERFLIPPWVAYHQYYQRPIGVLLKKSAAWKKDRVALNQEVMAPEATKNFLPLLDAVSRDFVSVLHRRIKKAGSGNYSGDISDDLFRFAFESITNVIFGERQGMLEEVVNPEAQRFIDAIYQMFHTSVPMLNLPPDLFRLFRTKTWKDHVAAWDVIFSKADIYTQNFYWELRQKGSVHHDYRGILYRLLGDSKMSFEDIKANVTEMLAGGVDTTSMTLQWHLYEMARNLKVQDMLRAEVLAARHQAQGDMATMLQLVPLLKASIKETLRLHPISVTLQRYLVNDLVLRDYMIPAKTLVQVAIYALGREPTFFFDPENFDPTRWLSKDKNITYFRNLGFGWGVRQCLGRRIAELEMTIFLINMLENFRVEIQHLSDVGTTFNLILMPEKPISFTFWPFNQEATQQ
T1 sequence (P00257 59-186 partner): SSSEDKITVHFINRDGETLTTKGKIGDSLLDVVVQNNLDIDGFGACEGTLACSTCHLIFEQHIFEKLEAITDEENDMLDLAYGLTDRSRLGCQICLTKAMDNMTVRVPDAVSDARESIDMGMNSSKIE
Method: In this reaction, a 5 μM complex of P450 11A1 and 4.5 μM cholesterol was assembled, and Adx was added at either equimolar (low, 5 μM) or 10-fold excess (high, 50 μM) concentrations (along with 10 μM AdR). The complex was diluted 2-fold (with 5 mM NADPH) in the apparatus to initiate the reaction, which was quenched at variable times. The products of the reaction were extracted and quantified by radio-HPLC. […] (The analysis of kinetic modeling is described below.)
P450 11A1 (5 μM) was reconstituted with its redox partners AdR (10 μM) and Adx (5 μM) on ice (10 min) prior to dilution in potassium Hepes buffer (50 mM, pH 7.4) and H2O and the addition of ^3H-cholesterol substrate (4.5 μM, 0.5 Ci/mmol). The concentration of substrate was deliberately kept slightly below the enzyme concentration to ensure that single-turnover conditions were strictly followed. The mixture (0.75 ml) was preincubated (37 °C, 5 min) in a shaking water bath prior to initiation with an equal volume of NADPH solution (5 mM, from a 10 mM stock in 50 mM potassium Hepes buffer, pH 7.4), thus reducing the concentrations of all enzymes and substrate to one-half their starting concentrations. After completing the desired incubation time, an aliquot (200 μl) was removed from the incubation and added to vials containing aqueous HCl (800 μl, 1 M). The quenched reactions were mixed with a vortex device and placed on ice. When the time course was complete, the quenched reactions were mixed with CH2Cl2 (5 ml) to extract reaction products and were centrifuged (10^3g, 5 min, 23 °C) to separate layers, and the organic (bottom) layers were transferred (4 ml) to fresh glass vials. The extraction process was repeated and the two extracts (2 × 4 ml) from each sample were combined to maximize product recovery. Samples (8 ml) were brought to dryness under a stream of nitrogen, and the dried residues were dissolved in CH3OH (75 μl) and transferred to autosampler vials for analysis by radio-HPLC.
Enzyme and NADPH solutions were prepared as described for the benchtop experiments (above) but with the modification that the concentration of Adx was increased to 50 μM (from 5 μM). […] The rapid quench-flow is a rapid mixing device that combines equal volumes (∼19 μl) of two solutions (P450 and NADPH, held at 37 °C) into a central internal chamber to initiate a reaction. After the preset reaction time is completed, the mixture (∼38 μl) is then rapidly combined with a quench solution (1 M HCl, ∼160 μl), expelled from the apparatus, and collected in vials. Utilizing this experimental design, the reaction of enzyme-substrate complex (P450 11A1-Adx-AdR and ^3H-cholesterol) was initiated with NADPH on a variable timescale (0–90 s), pooling five replicates of each time point to maximize sensitivity. The products of each quenched reaction (∼1 ml) were extracted with two volumes (5 ml) of CH2Cl2, brought to dryness, and dissolved in CH3OH as described for the benchtop experiments.
Samples (held at 4 °C) were injected (50 μl) using a Agilent 1100 Series HPLC system on a NovaPak (Waters) octadecylsilane (C18) 3.9 mm × 100 mm (4 μm) column (held at 25 °C) with a flow rate of 1.0 ml min^−1 using a gradient mobile phase of (A) H2O and (B) CH3CN as follows (all in % B, v/v): 0 min, 70%; 10 min, 100%; 35.5 min, 100%; 37 min, 30%; and 40 min, 70%).

[1] = 10-fold excess (high) Adx, time 0 s
[2] = 10-fold excess (high) Adx, time 0.25 s
[3] = 10-fold excess (high) Adx, time 0.5 s
[4] = 10-fold excess (high) Adx, time 0.75 s
[5] = 10-fold excess (high) Adx, time 1 s
[6] = 10-fold excess (high) Adx, time 2 s
[7] = 10-fold excess (high) Adx, time 2.5 s
[8] = 10-fold excess (high) Adx, time 3.5 s
[9] = 10-fold excess (high) Adx, time 5 s
[10] = 10-fold excess (high) Adx, time 6 s
[11] = 10-fold excess (high) Adx, time 7.5 s
[12] = 10-fold excess (high) Adx, time 10 s
[13] = 10-fold excess (high) Adx, time 15 s
[14] = 10-fold excess (high) Adx, time 20 s
[15] = 10-fold excess (high) Adx, time 30 s
[16] = 10-fold excess (high) Adx, time 45 s
[17] = 10-fold excess (high) Adx, time 60 s
[18] = 10-fold excess (high) Adx, time 90 s
[19] = second table, headed 10-fold excess (high) Adx, time 0 s
[20] = second table, headed 10-fold excess (high) Adx, time 10 s
[21] = second table, headed 10-fold excess (high) Adx, time 25 s
[22] = second table, headed 10-fold excess (high) Adx, time 50 s
[23] = second table, headed 10-fold excess (high) Adx, time 75 s
[24] = second table, headed 10-fold excess (high) Adx, time 100 s
[25] = second table, headed 10-fold excess (high) Adx, time 200 s
[26] = second table, headed 10-fold excess (high) Adx, time 500 s

In the case of `CC(C)CC[C@@H](O)[C@](C)(O)[C@H]1CC[C@H]2[C@@H]3CC=C4C[C@@H](O)CC[C@]4(C)[C@H]3CC[C@]12C` [20R,22R-(OH)2 Chol, (20R,22R)-Cholest-5-ene-3β,20,22-triol], the Kd (bovine P450 11A1) is listed as 81 nM, the “concentration in single-turnover reaction” value (from here on “concentration”) (human P450 11A1; [1]) is listed as 0 µM and the “concentration” value (human P450 11A1; [2]) is listed as 0 µM. The “concentration” value (human P450 11A1; [3]) was 0.1366 µM, the “concentration” value (human P450 11A1; [4]) was 0.2407 µM and the “concentration” value (human P450 11A1; [5]) was 0.2278 µM. The “concentration” value (human P450 11A1; [6]) was 0.1672 µM, the “concentration” value (human P450 11A1; [7]) was 0.2051 µM and the “concentration” value (human P450 11A1; [8]) was 0.184 µM. The “concentration” value (human P450 11A1; [9]) was 0.1911 µM, the “concentration” value (human P450 11A1; [10]) was 0.1865 µM and the “concentration” value (human P450 11A1; [11]) was 0.2095 µM. For the same molecule, the “concentration” value (human P450 11A1; [12]) was 0.1817 µM, the “concentration” value (human P450 11A1; [13]) was 0.1522 µM and the “concentration” value (human P450 11A1; [14]) was 0.1106 µM. For the same molecule, the “concentration” value (human P450 11A1; [15]) was 0.03422 µM, the “concentration” value (human P450 11A1; [16]) was 0 µM and the “concentration” value (human P450 11A1; [17]) was 0 µM. For the same molecule, the “concentration” value (human P450 11A1; [18]) was 0 µM, the “concentration” value (human P450 11A1; [19]) was 0 µM and the “concentration” value (human P450 11A1; [20]) was 0.239 µM. The “concentration” value (human P450 11A1; [21]) was 0.1619 µM, the “concentration” value (human P450 11A1; [22]) was 0.07194 µM and the “concentration” value (human P450 11A1; [23]) was 0.04787 µM. The “concentration” value (human P450 11A1; [24]) was 0 µM, the “concentration” value (human P450 11A1; [25]) was 0 µM and the “concentration” value (human P450 11A1; [26]) was 0 µM.

For `CC(C)CCC[C@@H](C)[C@H]1CC[C@H]2[C@@H]3CC=C4C[C@@H](O)CC[C@]4(C)[C@H]3CC[C@]12C` [Cholesterol], the “time to complete reaction, low Adx” value (human P450 11A1; 5 μM Adx) was 3 min, the “time to complete reaction, excess Adx” value (human P450 11A1; 50 μM Adx) was 1 min and the “first-order decay, rate of 22R-hydroxylation (k2), single exponential fit” value (human P450 11A1; 10-fold (50 μM) excess Adx) was 0.09 s⁻¹. For the same molecule, the “concentration” value (human P450 11A1; [1]) was 4.5 µM, the “concentration” value (human P450 11A1; [2]) was 4.334 µM and the “concentration” value (human P450 11A1; [3]) was 4.022 µM. For the same molecule, the “concentration” value (human P450 11A1; [4]) was 3.865 µM, the “concentration” value (human P450 11A1; [5]) was 3.748 µM and the “concentration” value (human P450 11A1; [6]) was 3.432 µM. For the same molecule, the “concentration” value (human P450 11A1; [7]) was 3.365 µM, the “concentration” value (human P450 11A1; [8]) was 3.113 µM and the “concentration” value (human P450 11A1; [9]) was 2.84 µM. The “concentration” value (human P450 11A1; [10]) was 2.762 µM, the “concentration” value (human P450 11A1; [11]) was 2.508 µM and the “concentration” value (human P450 11A1; [12]) was 1.814 µM. For the same molecule, the “concentration” value (human P450 11A1; [13]) was 1.24 µM, the “concentration” value (human P450 11A1; [14]) was 0.9421 µM and the “concentration” value (human P450 11A1; [15]) was 0.6054 µM. For the same molecule, the “concentration” value (human P450 11A1; [16]) was 0.4283 µM, the “concentration” value (human P450 11A1; [17]) was 0.3162 µM and the “concentration” value (human P450 11A1; [18]) was 0.26 µM. For the same molecule, the “concentration” value (human P450 11A1; [19]) was 4.5 µM, the “concentration” value (human P450 11A1; [20]) was 2.794 µM and the “concentration” value (human P450 11A1; [21]) was 1.649 µM. For the same molecule, the “concentration” value (human P450 11A1; [22]) was 0.7284 µM, the “concentration” value (human P450 11A1; [23]) was 0.3322 µM and the “concentration” value (human P450 11A1; [24]) was 0.1591 µM. The “concentration” value (human P450 11A1; [25]) was 0 µM and the “concentration” value (human P450 11A1; [26]) was 0 µM.

In the case of `CC(=O)[C@H]1CC[C@H]2[C@@H]3CC=C4C[C@@H](O)CC[C@]4(C)[C@H]3CC[C@]12C` [Pregnenolone], the “concentration” value (human P450 11A1; [1]) is reported as 0 µM, the “concentration” value (human P450 11A1; [2]) is reported as 0 µM and the “concentration” value (human P450 11A1; [3]) is reported as 0 µM. For the same molecule, the “concentration” value (human P450 11A1; [4]) was 0.1368 µM, the “concentration” value (human P450 11A1; [5]) was 0.3142 µM and the “concentration” value (human P450 11A1; [6]) was 0.6865 µM. For the same molecule, the “concentration” value (human P450 11A1; [7]) was 0.7647 µM, the “concentration” value (human P450 11A1; [8]) was 1.037 µM and the “concentration” value (human P450 11A1; [9]) was 1.311 µM. The “concentration” value (human P450 11A1; [10]) was 1.385 µM, the “concentration” value (human P450 11A1; [11]) was 1.618 µM and the “concentration” value (human P450 11A1; [12]) was 2.345 µM. For the same molecule, the “concentration” value (human P450 11A1; [13]) was 2.973 µM, the “concentration” value (human P450 11A1; [14]) was 3.346 µM and the “concentration” value (human P450 11A1; [15]) was 3.763 µM. For the same molecule, the “concentration” value (human P450 11A1; [16]) was 4.002 µM, the “concentration” value (human P450 11A1; [17]) was 4.116 µM and the “concentration” value (human P450 11A1; [18]) was 4.189 µM. For the same molecule, the “concentration” value (human P450 11A1; [19]) was 0 µM, the “concentration” value (human P450 11A1; [20]) was 1.241 µM and the “concentration” value (human P450 11A1; [21]) was 2.512 µM. The “concentration” value (human P450 11A1; [22]) was 3.582 µM, the “concentration” value (human P450 11A1; [23]) was 4.057 µM and the “concentration” value (human P450 11A1; [24]) was 4.341 µM. For the same molecule, the “concentration” value (human P450 11A1; [25]) was 4.5 µM and the “concentration” value (human P450 11A1; [26]) was 4.5 µM.
